The values below are quoted from earlier work in US7354746B1, “Method for producing optically active IHOG and monatin” (Ajinomoto Co., Inc., priority 2006, dated 2008).

For this series the following is noted: for Sweetness (vs. Sucrose): sweetness intensity relative to sucrose.

Molecules are shown by their SMILES. Where two headings read alike, the source gives them in different places.

For `N[C@H](CC(O)(Cc1c[nH]c2ccccc12)C(=O)O)C(=O)O` (stereo partly drawn) [2R, 4R, (2R, 4R)-monatin], the “Sweetness (vs. Sucrose)” value is 2700 times. Further, the “Sweetness rank among the 4 types of monatin isomers” value (comparison of the 4 monatin isomers) is on record as “highest sweetness”. Further, the “Sweetness (vs. Sucrose)” value (listed as (2R, 4R)-monatin) is 2,700 times.
Regarding `N[C@H](C[C@@](O)(Cc1c[nH]c2ccccc12)C(=O)O)C(=O)O` [2R, 4S], the “Sweetness (vs. Sucrose)” value is 1300 times.
With `N[C@@H](C[C@](O)(Cc1c[nH]c2ccccc12)C(=O)O)C(=O)O` [2S, 4R, (2S, 4R)-monatin], the “Sweetness (vs. Sucrose)” value is reported as 300 times.
Regarding `NC(CC(O)(Cc1c[nH]c2ccccc12)C(=O)O)C(=O)O` [2S, 4S, (2S, 4S)-monatin], the “Sweetness (vs. Sucrose)” value is 50 times.
